Like-named read-outs stand apart in the source and are kept apart here.
Columns and labels:
human colon HT29 tumors = details: cited from earlier work
[1] = test system: murine leukemia L1210 cells; details: cited from earlier work; for IC50: after 72 hours of incubation, diethyl ester prodrugs, read-out: IC50, growth of L1210 cells
[2] = test system: human prostate PC3 tumors; details: cited from earlier work
[3] = test system: murine melanotic melanoma; details: cited from earlier work; for efficacy relative to positive control adriamycin: at much higher dosages than adriamycin
[4] = test system: DMS114 lung and DU145 prostate xenografts; details: cited from earlier work
human GlxI [5] = molecular target: T1, human GlxI (Homo sapiens, UniProt Q04760); test: Competitive inhibition constants (Kis) with human GlxI; assay type: biochemical; details: for binds more tightly to hGlxI than to yGlxI: ratio of Ki yGlxI / hGlxI
T1 construct: hGlxI from human erythrocytes; from tissue; host or cells: human erythrocytes
T1 sequence (Q04760 2-184 limits assumed): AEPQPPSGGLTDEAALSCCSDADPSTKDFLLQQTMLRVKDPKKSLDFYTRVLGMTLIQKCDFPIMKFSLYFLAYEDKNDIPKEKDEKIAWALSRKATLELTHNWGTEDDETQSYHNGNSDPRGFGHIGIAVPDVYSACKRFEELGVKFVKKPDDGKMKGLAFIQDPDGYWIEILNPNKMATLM
Experimental: (§1) Competitive inhibition constants (Kis) of bivalent and monovalent enzyme inhibitors with human GlxI or yeast GlxI (yGlxI) were obtained from the change in the initial rates of product formation at various concentrations of the substrate in the presence or absence of the inhibitor. To a 1 ml cuvette containing 50 mM sodium phosphate buffer, pH 7.0, 0.5 mM EDTA, 25° C. and different concentrations of thiohemiacetal substrates with fixed concentrations of inhibitor was added approximately 0.02 U of enzyme. The initial rates of product formation were followed on the basis of the increase in absorbancy at 240 nm. Inhibition constants were obtained by fitting the initial rate data to the equation for competitive inhibition.

bovine liver GlxII [6] = molecular target: T2, bovine liver GlxII (Bos taurus, UniProt Q3B7M2); test: Competitive inhibition constants (Kis) with bovine liver GlxII; assay type: biochemical; details: sodium phosphate buffer, 50 mM, pH 7, 25° C.; mean (±S.D.) duplicate; read-out: Ki, bGlxII
T2 construct: yeast GlxI (yGlxI) and bovine liver GlxII (bGlXII); from tissue; host or cells: bovine liver

[7] = molecular target: T3, human placental GSH transferase (Homo sapiens, UniProt P09211); test: Inhibition of human placental GSH transferase; assay type: biochemical; details: up to an inhibitor concentration of 20 μM
T3 construct: human placental GSH transferase; from tissue; host or cells: human placenta
T3 sequence (P09211 2-210 limits assumed): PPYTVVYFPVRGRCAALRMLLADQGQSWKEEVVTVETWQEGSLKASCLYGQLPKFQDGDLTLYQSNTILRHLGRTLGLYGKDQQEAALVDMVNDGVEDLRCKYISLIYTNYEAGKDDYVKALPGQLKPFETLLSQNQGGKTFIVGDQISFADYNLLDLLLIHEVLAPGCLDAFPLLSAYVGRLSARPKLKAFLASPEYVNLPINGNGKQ

GSH peroxidase = test: Inhibition of GSH peroxidase; assay type: biochemical; details: up to an inhibitor concentration of 20 μM
yeast GlxI = molecular target: T4, yeast GlxI (Saccharomyces cerevisiae, UniProt P50107); test: Competitive inhibition constants (Kis) with yeast GlxI; assay type: biochemical; details: sodium phosphate buffer, 50 mM, pH 7, 25° C.; mean (±S.D.) duplicate; read-out: Ki, yGlxI
T4 sequence (P50107 1-326): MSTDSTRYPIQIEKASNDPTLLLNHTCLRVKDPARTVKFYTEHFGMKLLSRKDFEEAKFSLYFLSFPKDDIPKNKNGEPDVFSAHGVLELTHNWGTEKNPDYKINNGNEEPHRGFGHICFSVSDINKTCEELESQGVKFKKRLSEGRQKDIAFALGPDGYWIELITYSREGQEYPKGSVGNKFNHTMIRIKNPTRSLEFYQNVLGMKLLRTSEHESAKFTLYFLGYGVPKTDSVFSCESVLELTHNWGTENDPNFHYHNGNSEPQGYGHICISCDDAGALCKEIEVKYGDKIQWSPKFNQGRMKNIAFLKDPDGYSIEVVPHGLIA
Experimental: as §1

human GlxI [8] = molecular target: T1, human GlxI; test: Irreversible inactivation kinetics of human GlxI; assay type: biochemical
Experimental: Incubation mixtures of enzyme (10 units/ml) and known concentrations of inactivator in phosphate buffer were separately incubated in plastic bullet tubes maintained at 25° C. in a water bath. Aliquots were removed, diluted into a quartz cuvette containing one ml GSH-methylglyoxal-thiohemiacetal, and the rate of product formation (ΔOD (240)) monitored as a function of time. From the initial rate of product formation, the activity of the enzyme was calculated. The slope of a plot of in (fraction of enzyme activity remaining) versus time gives the apparent first-order rate constant (kinact) for inactivation of hGlxI. A plot of kinact versus inactivator concentration (FIG. 7.) gives the dissociation constant (Kd and the maximum value of kinact).

bovine liver GlxII [9] = molecular target: T2, bovine liver GlxII; details: cited from earlier work
[10] = sodium phosphate buffer, 50 mM, pH 7, 25° C., mean (±S.D.) triplicate, read-out: Ki, hGlxI
[11] = glycerol (20%) in sodium phosphate buffer, pH 7, 25° C.

Molecule: CCOC(=O)CNC(=O)[C@H](CSC(=O)N(O)c1ccc(Cl)cc1)NC(=O)CC[C@H](N)C(=O)OCC [CHG(Et)2]
- efficacy against HT29 tumors (human colon HT29 tumors; bolus administration): efficacy was not observed
- potency relative to positive control vincristin (human colon HT29 tumors; continuous i.v. infusion): as good as the positive control vincristin
- side-effects (human colon HT29 tumors; continuous i.v. infusion): without any detectable side-effects
- toxicity to L1210 cells versus normal splenic lymphocytes in culture ([1]; Kavarana et al 1999): significantly more toxic to murine leukemia L1210 cells than to normal splenic lymphocytes
- IC50 [1]: 5000 nM
- haemopoetic toxicity ([2]; PC3 tumor-bearing mice): without the cisplatin-associated haemopoetic toxicity
- growth of PC3 tumors ([2]; bolus i.v. administration): inhibited the growth
- potency relative to positive control cisplatin ([2]; bolus i.v. administration): as good as the positive control cisplatin
- effect on PC3 tumors ([2]; continuous infusion over 12 days): no effect was observed
- efficacy relative to positive control adriamycin [3]: as effective as the positive control adriamycin
- accumulation of drug in melanoma ([3]; following i.v. bolus administration): significant accumulation of drug in melanoma

Molecule: N[C@@H](CCC(=O)N[C@@H](CSCc1ccc(Br)cc1)C(=O)NCC(=O)O)C(=O)O [(S-p-bromobenzyl)glutathione (BBG), (S-p-bromobenzyl)glutathione]
- efficacy against human lung tumors (DMS114) in mice ([4]; dosages of 100 mg/kg): effective
- adverse side effects ([4]; during the 21 days of administration, 100 mg/kg): no evidence of adverse side effects

Molecule: CCOC(=O)CNC(=O)C(CSC(=O)N(O)c1ccc(Br)cc1)NC(=O)CCC(N)C(=O)OCC (stereo not drawn) [BHG(Et)2]
- IC50 [1]: 16000 nM

Molecule: O=C(O)CNC(=O)C(CSC(=O)N(O)c1ccc(Cl)cc1)NC(=O)CCC(NC(=O)CCNC(=O)CCNC(=O)CCCCCCC(=O)NCCC(=O)NCCC(=O)NC(CCC(=O)NC(CSC(=O)N(O)c1ccc(Cl)cc1)C(=O)NCC(=O)O)C(=O)O)C(=O)O (stereo not drawn) [[CHG(β-Ala)n]2sub., n = 2, [CHG(β-ala)2]2suberate diamide]
- Ki (human GlxI [5]; [10]): 75.9 ± 7.4 nM
- Ki (bovine liver GlxII [6]): 50 ± 5 nM

Molecule: CCOC(=O)CNC(=O)C(CSC(=O)N(O)c1ccccc1)NC(=O)CCC(N)C(=O)OCC (stereo not drawn) [PHG(Et)2]
- IC50 [1]: 63000 nM

Molecule: O=C(O)CNC(=O)[C@H](CSC(=O)N(O)c1ccc(Cl)cc1)NC(=O)CC[C@H](NC(=O)CCNC(=O)CCNC(=O)CCNC(=O)CCNC(=O)CCNC(=O)CCNC(=O)CCCCCCC(=O)NCCC(=O)NCCC(=O)NCCC(=O)NCCC(=O)NCCC(=O)NCCC(=O)N[C@@H](CCC(=O)N[C@@H](CSC(=O)N(O)c1ccc(Cl)cc1)C(=O)NCC(=O)O)C(=O)O)C(=O)O [[CHG(β-Ala)n]2sub., n = 6, [CHG (β-ala)6]2suberate diamide]
- inhibitory activity on human placental GSH transferase [7]: no inhibitory activity
- inhibitory activity on GSH peroxidase (GSH peroxidase): no inhibitory activity
- Ki (yeast GlxI): 7200 ± 100 nM
- mode of inhibition of hGlxI (human GlxI [5]; hGlxI from human erythrocytes, reciprocal plot FIG. 4): competitive inhibitor
- binding selectivity hGlxI versus bGlxII (human GlxI [5]; ratio of Ki bGlxII / hGlxI): 148 fold
- binds more tightly to hGlxI than to yGlxI (human GlxI [5]): about 7500 fold
- Ki (human GlxI [5]; [10]): 0.96 ± 0.06 nM
- Ki (bovine liver GlxII [6]): 142 ± 1 nM

Molecule: N[C@@H](CCC(=O)N[C@@H](CSC(=O)N(O)c1ccc(Cl)cc1)C(=O)NCC(=O)O)C(=O)O [CHG, S—(N-p-chlorophenyl-N-hydroxycarbamoyl)glutathione, reference compound]
- protection of the enzyme from inactivation by BPG/BBG (human GlxI [8]; reversible inhibitor present): protects the enzyme from inactivation
- binds more tightly to hGlxI than to yGlxI (human GlxI [5]): 78 fold
- substrate for bovine liver GlxII (bovine liver GlxII [9]): substrates for bovine liver GlxII

Molecule: NC(CCC(=O)NC(CSC(=O)N(O)c1ccc(Cl)cc1)C(=O)NCC(=O)OC1CCCC1)C(=O)OC1CCCC1 (stereo not drawn) [CHG(cyclopentyl)2]
- efficacy relative to positive control adriamycin [3]: as effective as the positive control adriamycin

Molecule: O=C(O)CNC(=O)C(CSC(=O)N(O)c1ccc(Cl)cc1)NC(=O)CCC(NC(=O)CCNC(=O)CCNC(=O)CCNC(=O)CCNC(=O)CCNC(=O)CCCCCCC(=O)NCCC(=O)NCCC(=O)NCCC(=O)NCCC(=O)NCCC(=O)NC(CCC(=O)NC(CSC(=O)N(O)c1ccc(Cl)cc1)C(=O)NCC(=O)O)C(=O)O)C(=O)O (stereo not drawn) [[CHG(β-Ala)n]2sub., n = 5, [CHG (β-ala)5]2suberate diamide]
- Ki (human GlxI [5]; [10]): 7.5 ± 0.5 nM

Molecule: O=C(O)CNC(=O)C(CSC(=O)N(O)c1ccc(Cl)cc1)NC(=O)CCC(NC(=O)CCNC(=O)CCNC(=O)CCNC(=O)CCNC(=O)CCCCCCC(=O)NCCC(=O)NCCC(=O)NCCC(=O)NCCC(=O)NC(CCC(=O)NC(CSC(=O)N(O)c1ccc(Cl)cc1)C(=O)NCC(=O)O)C(=O)O)C(=O)O (stereo not drawn) [[CHG(β-Ala)n]2sub., n = 4, [CHG (β-ala)4]2suberate diamide]
- Ki (yeast GlxI): 9000 ± 300 nM
- Ki (human GlxI [5]; [10]): 59.6 ± 2 nM

Molecule: N[C@@H](CCC(=O)N[C@@H](CSC(=O)N(O)c1ccc(Br)cc1)C(=O)NCC(=O)O)C(=O)O [BHG, S—(N-p-bromophenyl-N-hydroxy-carbamoyl)glutathione]
- substrate for bovine liver GlxII (bovine liver GlxII [9]): substrates for bovine liver GlxII

Molecule: NCCC(=O)NC(CCC(=O)NC(CSC(=O)N(O)c1ccc(Cl)cc1)C(=O)NCC(=O)O)C(=O)O (stereo not drawn) [CHG(β-Ala)n, n = 1]
- Ki (human GlxI [5]; [10]): 330 ± 6 nM
- Ki (bovine liver GlxII [6]): 1200 ± 12 nM

Molecule: O=C(O)CNC(=O)C(CSC(=O)N(O)c1ccc(Cl)cc1)NC(=O)CCC(NC(=O)CCNC(=O)CCNC(=O)CCNC(=O)CCCCCCC(=O)NCCC(=O)NCCC(=O)NCCC(=O)NC(CCC(=O)NC(CSC(=O)N(O)c1ccc(Cl)cc1)C(=O)NCC(=O)O)C(=O)O)C(=O)O (stereo not drawn) [[CHG(β-Ala)n]2sub., n = 3, [CHG(β-ala)3]2suberate diamide]
- Ki (human GlxI [5]; [10]): 84.1 ± 2.4 nM

Molecule: CN(O)C(=O)SC[C@H](NC(=O)CC[C@H](N)C(=O)O)C(=O)NCC(=O)O [S—(N-methyl-N-hydroxycarbamoyl)glutathione]
- substrate for bovine liver GlxII (bovine liver GlxII [9]): substrates for bovine liver GlxII

Molecule: N[C@@H](CCC(=O)N[C@@H](CSCC(=O)OCCCCOC(=O)CBr)C(=O)NCC(=O)O)C(=O)O
- irreversible inactivation of human GlxI (human GlxI [8]; [11]): irreversibly inactivate human GlxI
- kinact (human GlxI [8]; [11]): 0.000267 s⁻¹
- Kd (human GlxI [8]; glycerol (20%) in sodium phosphate buffer, pH 7, 25° C., fit of kobsd vs concentration, read-out: Kd (dissociation constant) for inactivation of human GlxI): 177000 ± 43000 nM

Molecule: N[C@@H](CCC(=O)N[C@@H](CSC(=O)N(O)c1ccccc1)C(=O)NCC(=O)O)C(=O)O [S—(N-phenyl-N-hydroxycarbamoyl)glutathione]
- substrate for bovine liver GlxII (bovine liver GlxII [9]): substrates for bovine liver GlxII

Molecule: O=C(O)CNC(=O)[C@H](CSC(=O)N(O)c1ccc(Cl)cc1)NC(=O)CC[C@H](NC(=O)CCNC(=O)CCCCCCC(=O)NCCC(=O)N[C@@H](CCC(=O)N[C@@H](CSC(=O)N(O)c1ccc(Cl)cc1)C(=O)NCC(=O)O)C(=O)O)C(=O)O [[CHG(β-Ala)n]2sub., n = 1, [CHG(β-ala)]2Suberate Diamide]
- Ki (yeast GlxI): 3000 ± 200 nM
- Ki (human GlxI [5]; [10]): 70.1 ± 1.3 nM
- Ki (bovine liver GlxII [6]): 35 ± 4 nM

Molecule: N-(tri-beta-ala hydroxyethylamide ethylenediamine bis(hexanedioic acid O-carbonylethyl)S—(N-p-bromophenyl-N-hydroxy-carbamoyl)glutathione [polyBHG2-54]
- Ki (human GlxI [5]; competitive inhibition, read-out: Ki values, human GlxI): 0.3 nM

Molecule: [CHG (β-ala)7]2suberate diamide [[CHG(β-Ala)n]2sub., n = 7]
- Ki (yeast GlxI): 4100 ± 500 nM
- Ki (human GlxI [5]; [10]): 0.97 ± 0.02 nM
- Ki (bovine liver GlxII [6]): 79 ± 8 nM
